# Measurements from patent US7402593B2 (priority 2004, dated 2008).
# What was measured:
# [1] = compared with other PPIs such as omeprazole or lansoprazole; cited from earlier work
# in vivo = conditions: dog, plasma, po, 50 mg/kg
SMILES,half-life in plasma relative to other PPIs [1],AUC(0-t) (in vivo),Cmax (in vivo),Tmax (in vivo),solubility (solubility in water; water),highest concentration of solution obtainable (solubility in water; room temperature)
"COc1ccc2[nH]c([S+]([O-])Cc3ncc(C)c(OC)c3C)nc2n1 (racemic) [racemic tenatoprazole, 5-methoxy-2-[ [(4-methoxy-3,5-dimethyl-2-pyridyl)methyl]sulfinyl]imidazo[4,5-b]pyridine]",approximately seven times longer,156 µg·h/mL,50.2 ng/mL,1.5 h,< 1000 µg/mL,–
COc1ccc2nc([S+]([O-])Cc3ncc(C)c(OC)c3C)[n-]c2n1.[Na+] (racemic) [sodium salt of racemic tenatoprazole],–,–,–,–,–,≤ 19 g/L
